Source: patent publication US20040062739A1, “Use of carbohydrates to improve skin barrier function” (SOCIETE L'OREAL S.A., priority 2000, published 2004)

What was measured:
GLY-09 = test system: GLY-09; design: key: −: no activity; ε, +, ++: specific activity; ε, +, ++: specific activity; ε, +, ++: specific activity; conditions: glycosidase sold by Clonezyme; cited from earlier work
GLY-04 = test system: GLY-04; design: key: −: no activity; ε, +, ++: specific activity; ε, +, ++: specific activity; ε, +, ++: specific activity; conditions: glycosidase sold by Clonezyme; cited from earlier work
GLY-02 = test system: GLY-02; design: key: −: no activity; ε, +, ++: specific activity; ε, +, ++: specific activity; ε, +, ++: specific activity; conditions: glycosidase sold by Clonezyme; cited from earlier work
GLY-01 = test system: GLY-01; design: key: −: no activity; ε, +, ++: specific activity; ε, +, ++: specific activity; ε, +, ++: specific activity; conditions: glycosidase sold by Clonezyme; cited from earlier work
GLY-08 = test system: GLY-08; design: key: −: no activity; ε, +, ++: specific activity; ε, +, ++: specific activity; ε, +, ++: specific activity; conditions: glycosidase sold by Clonezyme; cited from earlier work
GLY-10 = test system: GLY-10; design: key: −: no activity; ε, +, ++: specific activity; ε, +, ++: specific activity; ε, +, ++: specific activity; conditions: glycosidase sold by Clonezyme; cited from earlier work
GLY-05 = test system: GLY-05; design: key: −: no activity; ε, +, ++: specific activity; ε, +, ++: specific activity; ε, +, ++: specific activity; conditions: glycosidase sold by Clonezyme; cited from earlier work
GLY-03 = test system: GLY-03; design: key: −: no activity; ε, +, ++: specific activity; ε, +, ++: specific activity; ε, +, ++: specific activity; conditions: glycosidase sold by Clonezyme; cited from earlier work
GLY-06 = test system: GLY-06; design: key: −: no activity; ε, +, ++: specific activity; ε, +, ++: specific activity; ε, +, ++: specific activity; conditions: glycosidase sold by Clonezyme; cited from earlier work
GLY-07 = test system: GLY-07; design: key: −: no activity; ε, +, ++: specific activity; ε, +, ++: specific activity; ε, +, ++: specific activity; conditions: glycosidase sold by Clonezyme; cited from earlier work
[1] = test system: β-D-glucosidase in the stratum corneum; test: enzymatic test of stratum corneum glycosidases with PNP chromogenic substrate: β-glucosidase; type: biochemical; conditions: different concentrations, FIG. 2
Procedure: In order to determine the nature and importance of the barrier effect of a carbohydrate derivative in accordance with the invention, the influence of O-octanoyl-6′-maltose on glycosidase activity was studied using the following enzymatic test: The assay was carried out in a 96 well plate. A mixture comprising the following was produced: 75μl of a 10 mM solution of specific chromogenic substrate coupled to paranitrophenol (PNP); 10 μl of 700 mM citrate buffer/200 mM sodium phosphate, pH 4.5; 55 μl of a 0.5 M solution of O-octanoyl-6′-maltose [α-D-glucopyannosyl-1-4-D-glucopyranose]; 40 μl of a solution of soluble glycosidases from the stratum corneum. This solution was obtained simply by scratching the forearm into a 70 mM sodium citrate buffer, pH 4.5 containing 1% of Tween 20 and eliminating cell debris by sequential filtering through a membrane with a pore size of 0.45 and of 0.22 μm. The measurements were carried out by quantifying the yellow coloration after incubation at 37° C. for a period in the range 1h30 and 48 hours.

Structure (SMILES)	substrate specificity GLY-09 (GLY-09)	substrate specificity GLY-04 (GLY-04)	substrate specificity GLY-02 (GLY-02)	substrate specificity GLY-01 (GLY-01)	substrate specificity GLY-08 (GLY-08)	substrate specificity GLY-10 (GLY-10)	substrate specificity GLY-05 (GLY-05)	substrate specificity GLY-03 (GLY-03)	substrate specificity GLY-06 (GLY-06)	substrate specificity GLY-07 (GLY-07)	stimulation of β-D-glucosidase activity [1]
OC[C@H]1O[C@@H](O[C@H]2[C@H](O)[C@@H](O)[C@H](O)O[C@@H]2CO)[C@H](O)[C@@H](O)[C@H]1O [β-D-lactose]	−	−	+	−	−	−	−	ε	+	ε	
OC[C@H]1O[C@@H](O)[C@H](O)[C@@H](O)[C@H]1O [β-D-galactose]	−	+	++	−	+	−	+	ε	ε	ε	
C[C@@H]1O[C@@H](O)[C@H](O)[C@H](O)[C@H]1O [α-L-rhamnose]	−	−	−	−	−	−	−	−	−	−	
O[C@@H]1[C@@H](O)[C@H](O)OC[C@H]1O [β-D-xylose]	ε	ε	+	ε	ε	−	ε	−	ε	ε	
CC(=O)NC1C(O)CC(Oc2ccc([N+](=O)[O-])cc2)(C(=O)O)OC1C(O)C(O)CO [α-D-N-acetylneuramide]	−	−	−	−	−	−	−	−	−	−	
OC[C@H]1O[C@H](O)[C@@H](O)[C@@H](O)[C@@H]1O [α-D-mannose]	−	−	−	−	−	−	−	−	−	−	
OC[C@H]1O[C@@H](O)[C@H](O)[C@@H](O)[C@@H]1O [β-D-glucose]	−	−	−	−	−	−	−	−	−	−	
OC[C@H]1O[C@H](O[C@H]2[C@H](O)[C@@H](O)[C@H](O)O[C@@H]2CO)[C@H](O)[C@@H](O)[C@@H]1O [maltose]											Neither maltose alone nor glucose alone could stimulate β-D-glucosidase activity
OC[C@H]1O[C@@H](O)[C@@H](O)[C@@H](O)[C@@H]1O [β-D-mannose]	+	−	ε	−	−	−	−	−	+	+	
OC[C@H]1O[C@H](O[C@H]2[C@H](O)[C@@H](O)[C@H](O)O[C@@H]2CO)[C@H](O)[C@@H](O)[C@@H]1O [β-D-cellobiose]	ε	ε	++	−	ε	−		ε	+	+	
C[C@@H]1O[C@H](O)[C@@H](O)[C@H](O)[C@@H]1O [β-L-fucose]	−	−	−	−	−	−	−	−	−	−	
OC[C@H]1O[C@H](O)[C@H](O)[C@@H](O)[C@H]1O [α-D-galactose]	−	−	−	−	−	+	−	−	−	−	
C[C@@H]1O[C@@H](O)[C@@H](O)[C@H](O)[C@@H]1O [α-L-fucose]	−	−	−	−	−	−	−	−	−	−	
CC(=O)NC1C(Oc2ccc([N+](=O)[O-])cc2)OC(CO)C(O)C1O [β-N-acetyl-D-glucosaminide]	−	−	−	−	−	−	−	−	−	−	
O=C(O)[C@H]1O[C@@H](Oc2ccc([N+](=O)[O-])cc2)[C@H](O)[C@@H](O)[C@@H]1O [β-D-glucuronide]	−	−	−	−	−	−	−	−	−	ε	
CC(=O)NC1C(OC2C(CO)OC(Oc3ccc([N+](=O)[O-])cc3)C(NC(C)=O)C2O)OC(CO)C(O)C1O [β-D-N-acetylch obloside]	−	−	−	−	−	−	−	−	−	−	
OC[C@H]1O[C@H](O)[C@H](O)[C@@H](O)[C@@H]1O [α-D-glucose]	++	++	++	++	++	−	++	++	++	++	
C[C@H]1O[C@@H](O)[C@H](O)[C@@H](O)[C@H]1O [β-D-fucose]	++	++	++	−	+	−	++	++	++	++	
